What all share (test): cell viability of stable HEK293T lines
Holding throughout (assay type): cell-based

The test system of one test is 293T-shNT cells. The conditions noted are these: Homo sapiens, HEK-293T, 24 h. On the procedure:
(§1) Fig. 4 CH004 arrests the cell cycle at the S phase. a CH004 reduces the cell viability of HEK293T and HepG2 cells. HEK293T or HepG2 cells were treated with indicated concentrations of CH004 for 24 h before the cell number was analyzed using the CellTiter96® Aqueous One Solution Cell Proliferation Assay (Promega, Materials and Methods). The means at each concentration of one representative experiment are shown as percentages of DMSO (control, 100%). Means ± SDs (n = 3). b Overexpression of hCBS or knock-down of hCBS counteracts the growth inhibition exerted by CH004 in HEK293T cells. Indicated HEK293T stable cell lines were treated with the CH004 or DMSO for 24 h. Then, the cell viability was quantified with the CellTiter 96® Aqueous One Solution Cell Proliferation Assay under the standard protocol (Promega). The means at each concentration are shown as percentages of their respective DMSO controls (100%). Means ± SDs (n = 3). The efficacy for CBS overexpression and knock-down in HEK293T cells was determined by Western blotting using an anti-CBS antibody (3E1, 1:2000; Abnova). c CH004 induces cell death in HEK293T and HepG2 cells. […] The means of percentages of dead cells (DMSO, 100%) from three independent samples are shown in d. Means ± SDs (n = 3). e, f Pharmacological inhibition or genetic knock-down of hCBS in HEK293T cells arrests the cell cycle at S phase. HEK293T cells were incubated with indicated compounds for 12 h, and the DNA content was quantified with propidium iodide to analyze the cell cycle distribution by flow cytometry (e). The cell cycle distributions for HEK293T-shNT and HEK293T-shCBS cells were accordingly analyzed and are shown in f. One representative diagram is shown for each condition. The mean percentages of various cell phases from three independent samples are shown in the respective right panels. Means ± SDs (n = 3). Statistical analyses were performed by two-way ANOVA with Bonferroni post-tests. *p < 0.05; **p < 0.01; ***p < 0.001.
(§2) HEK293T cells stably expressing hCBS-FL WT or Q222A mutant were generated using lentiviral particles carrying pCDH-hCBS or pCDH empty vector (EV) and pPACK Packaging Plasmid Mix (SBI, Mountain View, CA, USA) according to the manufacturer’s instructions. Similarly, CBS-knock-down HEK293T cells or control cells were obtained using the miRzip lentiviral vector according to the manufacturer’s protocol (SBI, MZIPxxxPA-1). The infected cells were then incubated with 2.5 μg/mL puromycin for two weeks until stable clones were obtained. The target sequence of shRNA-CBS was 5′-GTAGTTCCGCACTGAGTCG-3′, which has been used previously. The scramble control was 5′-TCCGCAGGTATGCACGCGT-3′.
(§3) Figure S12. CH004 inhibits the proliferation of cells via specifically targeting hCBS. (A-B) Dose-dependent curves of CH004 on the cell viability of CBS-stably-expressed HEK293T (A) or CBS-knockdown cells (B). Percentages of cell viability of CH004 obtained in Figure 4b were fitted to the non-linear equation using GraphPad Prism 5 to get the IC50 values of CH004 in respective cell lines (●, 293T-CBS WT cells; ○, 293T-EV; ▲, 293T-shCBS; △, 293T-shNT). Means ± SDs (n=3). […] HEK293T cells stably expressing of the lentiviral shRNA targeting CBS (shCBS) or control shRNA (shNT) were seeded at the density of ~ 3,000 cells per well in 96-well plates and the cell images in the bright field were acquired at indicated times by Image Xpress Micro® XLS (Molecular Devices, Sunnyvale, CA) under 10 × objective lens. Representative images of two independent experiments (n = 6 for each experiment) are shown in C. The cell numbers of images under 4 × objective lens of one representative experiment were calculated by Image Xpress Software and the data is shown in D. Means ± SDs (n=6). […] HepG2 cells were seeded in a 96-well plate at a density of 20000 cells per well and cultured for 24 h before treatment with indicated concentrations of CH004 for another 24 h. […]

A further test has as its system 293T-CBS WT cells. On the procedure: as §1, §2, §3
In a further test the test system is 293T-EV cells. The conditions noted are these: Homo sapiens, HEK-293T, 24 h. As to the method: as §1, §2, §3
For a further test, the system named is 293T-shCBS cells. As to the method:
as §1, §2, §3

One compound from PMC6158189, “A pharmacological probe identifies cystathionine β-synthase as a new negative regulator for ferroptosis” (Cell Death & Disease, 2018) can be followed below.

The structures appear in SMILES notation.

What is called IC50 is the concentration needed to halve the response being measured. Read a high IC50 as weaker potency.

On to `Cn1nc(Cc2ccccc2)nc2c(=O)n(C)c(=O)nc1-2` [CH004, 3-benzyl-1,6-dimethylpyrimido[5,4-e][1,2,4]triazine-5,7(1H,6H)-dione], for which the concentration for half-maximal inhibition (IC50) was determined as 2.6 ± 0.5 µM in the test with 293T-shNT cells; 35.5 ± 1.2 µM with 293T-CBS WT cells (Homo sapiens, HEK-293T, 24 h); 9.6 ± 1.6 µM in the test with 293T-EV cells; 43.2 ± 8.3 µM with 293T-shCBS cells (Homo sapiens, HEK-293T, 24 h). Besides, the “counteraction of inhibitory effect by overexpression of CBS” value in the test with 293T-CBS WT cells (293T-CBS WT vs 293T-EV) was found to be 3 fold. Further, the “increase of IC50 by CBS knock-down” value in the test with 293T-shCBS cells (293T-shCBS vs 293T-shNT) amounted to 15 fold.
